Measurements taken from US20060116390A1, “Hepatitis c virus inhibitors” (priority 2003, published 2006).
Read-outs that look alike come from different tables or passages of the source.

System: HCV proteins in Rep5.1 cells (replicon cell line)
Assay: Inhibitory activity of HCV: cell-based ELISA in replicon cell line Rep5.1 (decrease of HCV proteins)
Parameters: species or system hepatitis C virus
Conditions: Rep5.1 cells, 72 hours with drug
Method in brief: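 HCV protein loss was quantified by ELISA on methanol/acetone-fixed cells 72 h after drug addition, probing with selected HCV-positive human plasma, and IC50 was defined as 50% reduction relative to untreated wells. The cells were Rep5.1 replicon cells cultured in DMEM-10 with 500 μg/ml G418, plated at 5000 per well and dosed with serial dilutions after 4 h attachment.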

[1] = Hepatitis C virus, 72 h, concentration at which 50% of HCV proteins was decreased, Table 2, read-out: IC50
[2] = Hepatitis C virus, 72 h, decrease of HCV proteins measured by HCV antibody, Table 1, read-out: Level (IC50 values classified)
[3] = concentration at which 50% of HCV proteins was decreased, Table 2, read-out: IC50

SMILES | IC50 [1] [nM] | IC50 [2] [nM] | IC50 [3] [nM]
CC(=O)Oc1ccccc1CCC(=O)OCC1NC(=S)NC(C)=C1C(=O)OCCc1cccc([N+](=O)[O-])c1 (stereo not shown) [81″, 4-[3-(2-acetoxy-phenyl)-propionyloxymethyl]-6-methyl-2-thioxo-1,2,3,4-tetrahydro-pyrimidine-5-carboxylic acid 2-(3-nitro-phenyl)-ethyl ester] | 6500 | 1000 to 10000 | –
CSc1ccccc1COC(=O)C1=C(C)NC(=S)NC1 [Compound 110, 6-methyl-2-thioxo-1,2,3,4-tetrahydro-pyrimidine-5-carboxylic acid 2-methylsulfanyl-benzyl ester] | 17000 | 1000 to 10000 | –
CC1=C(C(=O)SCc2ccco2)CNC(=S)N1 [38′, 6-methyl-2-thioxo-1,2,3,4-tetrahydro-pyrimidine-5-carbothioic acid S-furan-2-ylmethyl ester] | 700 | < 1000 | –
CC1=C(C(=O)OCCC2CC2)CNC(=S)N1 [2′, 6-methyl-2-thioxo-1,2,3,4-tetrahydro-pyrimidine-5-carboxylic acid 2-cyclopropyl-ethyl ester] | 2400 | 1000 to 10000 | –
CC1=C(C(=O)OC2CCc3c2csc3Cl)CNC(=S)N1 (stereo not shown) [21′, 6-methyl-2-thioxo-1,2,3,4-tetrahydro-pyrimidine-5-carboxylic acid 1-chloro-5,6-dihydro-4H-cyclopenta[c]thiophen-4-yl ester] | 400 | < 1000 | –
CC1=C(C(=O)OC2CCc3c(Cl)sc(Cl)c32)CNC(=S)N1 (stereo not shown) [12′, 6-methyl-2-thioxo-1,2,3,4-tetrahydro-pyrimidine-5-carboxylic acid 1,3-dichloro-5,6-dihydro-4H-cyclopenta[c]thiophen-4-yl ester] | < 400 | < 1000 | –
COc1ccc(COc2ccc(COC(=O)C3=C(C)NC(=S)NC3)cc2)cc1 [Compound 227, 6-methyl-2-thioxo-1,2,3,4-tetrahydro-pyrimidine-5-carboxylic acid 4-(4-methoxy-benzyloxy)-benzyl ester] | < 400 | < 1000 | –
CC1=C(C(=O)OCc2cc(Cl)ccc2[N+](=O)[O-])C(CF)NC(=S)N1 (stereo not shown) [78′, 4-fluoromethyl-6-methyl-2-thioxo-1,2,3,4-tetrahydro-pyrimidine-5-carboxylic acid 5-chloro-2-nitro-benzyl ester] | 11000 | 10000 to 20000 | –
CC1=C(C(=O)OCCc2cccc(Cl)c2)C(COC(=O)OCc2oc(=O)oc2C)NC(=S)N1 (stereo not shown) [78″, 6-methyl-4-(5-methyl-2-oxo-[1,3]dioxol-4-ylmethoxycarbonyloxymethyl)-2-thioxo-1,2,3,4-tetrahydro-pyrimidine-5-carboxylic acid 2-(3-chloro-phenyl)-ethyl ester] | 800 | < 1000 | –
CCc1ccc(CCOC(=O)C2=C(C)NC(=S)NC2CF)o1 (stereo not shown) [23′, 4-fluoromethyl-6-methyl-2-thioxo-1,2,3,4-tetrahydro-pyrimidine-5-carboxylic acid 2-(5-ethyl-furan-2-yl)-ethyl ester] | 700 | < 1000 | –
CC1=C(C(=O)OCc2ccc(Br)cc2)CNC(=S)N1 [Compound 60, 6-methyl-2-thioxo-1,2,3,4-tetrahydro-pyrimidine-5-carboxylic acid 4-bromo-benzyl ester] | < 500 | < 1000 | –
COC(=O)NCCOC(=O)OCC1NC(=S)NC(C)=C1C(=O)OCCc1cccc(Cl)c1 (stereo not shown) [80″, 4-(2-methoxycarbonylnamino-ethoxycarbonyloxymethyl)-6-methyl-2-thioxo-1,2,3,4-tetrahydro-pyrimidine-5-carboxylic acid 2-(3-chloro-phenyl)-ethyl ester] | – | – | 1100
CC1=C(C(=O)OCc2ccccc2C)CNC(=S)N1 [Compound 231, 6-methyl-2-thioxo-1,2,3,4-tetrahydro-pyrimidine-5-carboxylic acid 2-methyl-benzyl ester] | 700 | < 1000 | –
COc1ccc(Cl)cc1COC(=O)C1=C(C)NC(=S)NC1CF (stereo not shown) [81′, 4-fluoromethyl-6-methyl-2-thioxo-1,2,3,4-tetrahydro-pyrimidine-5-carboxylic acid 5-chloro-2-methoxy-benzyl ester] | – | – | 2400
CC1=C(C(=O)OCc2nc3ccccc3n2C)CNC(=S)N1 [Compound 241, 6-methyl-2-thioxo-1,2,3,4-tetrahydro-pyrimidine-5-carboxylic acid 1-methyl-1H-benzoimidazol-2-ylmethyl ester] | 97000 | > 20000 | –
C#CCCCOC(=O)C1=C(C)NC(=S)NC1 [Compound 130, 6-methyl-2-thioxo-1,2,3,4-tetrahydro-pyrimidine-5-carboxylic acid pent-4-inyl ester] | – | – | 35000
CC1=C(C(=O)OCCc2ccsc2)C(COCc2ccccc2)NC(=S)N1 (stereo not shown) [Compound 272, 4-benzyloxymethyl-6-methyl-2-thioxo-1,2,3,4-tetrahydro-pyrimidine-5-carboxylic acid 2-thiophen-3-yl-ethyl ester] | 34000 | > 20000 | –
CC1=C(C(=O)OCc2ccc(O)cc2)CNC(=S)N1 [Compound 229, 6-methyl-2-thioxo-1,2,3,4-tetrahydro-pyrimidine-5-carboxylic acid 4-hydroxy-benzyl ester] | > 100000 | > 20000 | –
COc1ccc(COC(=O)C2=C(C)NC(=S)NC2)cc1Br [Compound 141, 6-methyl-2-thioxo-1,2,3,4-tetrahydro-pyrimidine-5-carboxylic acid 3-bromo-4-methoxy-benzyl ester] | 700 | < 1000 | –
CC1=C(C(=O)OCc2ccccc2C(F)(F)F)C(CF)NC(=S)N1 (stereo not shown) [37′, 4-fluoromethyl-6-methyl-2-thioxo-1,2,3,4-tetrahydro-pyrimidine-5-carboxylic acid 2-trifluoromethyl-benzyl ester] | 600 | < 1000 | –
CC1=C(C(=O)OCc2ccncc2)CNC(=S)N1 [Compound 155, 6-methyl-2-thioxo-1,2,3,4-tetrahydro-pyrimidine-5-carboxylic acid pyridin-4-ylmethyl ester] | > 100000 | > 20000 | –
COCC1NC(=S)NC(C)=C1C(=O)OCc1ccccc1 (stereo not shown) [Compound 109, 4-methoxymethyl-6-methyl-2-thioxo-1,2,3,4-tetrahydro-pyrimidine-5-carboxylic acid benzyl ester] | 100000 | > 20000 | –
CC1=C(C(=O)OCCCCc2ccsc2)C(CO)NC(=S)N1 (stereo not shown) [25″, 4-hydroxymethyl-6-methyl-2-thioxo-1,2,3,4-tetrahydro-pyrimidine-5-carboxylic acid 4-thiophen-3-yl-butyl ester] | 2000 | 1000 to 10000 | –
CC1=C(C(=O)OCCc2cccc([N+](=O)[O-])c2)CNC(=S)N1 [14′, 6-methyl-2-thioxo-1,2,3,4-tetrahydro-pyrimidine-5-carboxylic acid 2-(3-nitro-phenyl)-ethyl ester] | 700 | < 1000 | –
CC1=C(C(=O)OCc2ccc(C)cc2)CNC(=S)N1 [Compound 89, 6-methyl-2-thioxo-1,2,3,4-tetrahydro-pyrimidine-5-carboxylic acid 4-methyl-benzyl ester] | 800 | < 1000 | –
CC1=C(C(=O)OCc2ccc(Cl)cc2)CNC(=S)N1 [Compound 43, 6-methyl-2-thioxo-1,2,3,4-tetrahydro-pyrimidine-5-carboxylic acid 4-chloro-benzyl ester] | < 400 | < 1000 | –
